Source: patent publication US9737525B2, “Small molecule activators of NRF2 pathway” (The General Hospital Corporation, priority 2013, dated 2017)

Columns and labels:
[1] = test system: ARE genes Nqo1, Hmox1, Gclc; test: qPCR of ARE target genes in corticostriatal co-cultures; format: cell-based, mouse; conditions: 6 hr
Method: Primary corticostriatal neuronal co-cultures were prepared from E18 mouse brains as previously described [Kaltenbach, 2010]. Mice were maintained in accordance with Duke University Medical Center Institutional Animal Care and Use Committee guidelines. For 5×-ARE-luciferase reporter assays, neurons were transfected following their isolation (Nucleofector, Lonza) with 2.5 μg Cignal Antioxidant Response Reporter dual luciferase plasmids (Qiagen/SABiosciences) and plated onto pre-established glial beds in 96 well plates. After 4 days in culture at 37° C. under 5% CO2, co-cultures were treated with the indicated compounds for 4 hr or 16 hr then harvested and read for luminescence from firefly and Renilla luciferases according to the Dual Glo luciferase protocol (Promega) using a SpectraMaxL luminometer (Molecular Devices). Each sample was measured in technical triplicate. For quantitative RT-PCR (qPCR) of ARE target genes, corticostriatal co-cultures were prepared as described above and, after 4 days in culture, treated for 6 hr with the indicated compounds followed by RNA harvesting according to the Absolutely RNA miniprep protocol (Agilent Technologies). Purified RNA was converted to cDNA using random hexamers and SuperScript First-Strand RT-PCR Synthesis (Invitrogen). […] Ct values were determined using primer sets against ARE genes Hmox1, Gclc and Nqo1]. […]

[2] = test system: primary human monocytes; test: Cytokine production by primary monocytes from HD patients and controls; format: cell-based; set-up: Levels of IL-1, IL-6, IL-8 and TNFα: dose or concentration left out as unconfirmed
Method: Blood samples were obtained from control subjects and genetically-diagnosed, symptomatic HD patients. Patients were classed as having early or moderate-stage disease using the total functional capacity (TFC) scale (13-7, early; 6-3, moderate) [Marder, 2000]. Subjects with inflammatory or infective conditions were excluded. Cells were isolated from whole blood, as previously described [Björkqvist, 2008]. In brief, 50 ml whole blood was collected in heparin (CP Pharmaceuticals) and leukocytes were isolated by density gradient centrifugation. Monocytes were sorted via magnetic cell separation columns using anti-CD14 microbeads (Miltenyi Biotec). Monocytes were seeded at 1×10^5 cells per well in 96-well PRIMARIA™ tissue culture plates (BD Falcon) with R10 media (RPMI culture medium supplemented with 10% FCS, 2 mM L-glutamine, 50 U/ml penicillin and […] streptomycin (Invitrogen)). […] Supernatants were analyzed using the human pro-inflammatory II (4-plex) MSD assay measuring IL-1b, IL-6, IL-8 and TNFα. […] Cell death was measured using a LDH assay (CytoTox-Fluor™ Cytotoxicity Assay from Promega). Normalized cytokine levels have been analyzed on the logarithmic scale due to their skewed distribution. […] Contrasts of interest were then calculated using linear combinations of parameter estimates.

[3] = test system: primary astrocytes; test: IL-6 release from primary astrocytes of wild type and YAC128 mice (ELISA); format: cell-based, mouse; conditions: CSE-stimulated wild type and YAC128 astrocytes
Method: (§1) Whole brains were obtained from post-natal 1 to 3 day old wild type and YAC128 mouse pups on the FVB/N strain background and placed in Hanks Balanced Salt Solution (HBSS; Invitrogen) on ice. Meninges were removed and the remaining brain tissue was placed into growth medium (DMEM [Invitrogen], 10% FBS [PAA], 1% L-glutamine [Invitrogen], 1% penicillin/streptomycin [Invitrogen]), and homogenized using a 5 ml pipette. Cells of each brain were pelleted, re-suspended in growth medium and transferred into a T150 flask, cultured at 37° C. with 5% CO2. Growth medium was replaced after 24 hr and then every 7 days. After 18 to 21 days in culture, loosely attached microglia were harvested and seeded at 1.4×10^5 cells/ml with pre-incubated conditioned media into 96-well PRIMARIA™ tissue culture plates (BD Falcon). Adherent astrocytes were plated at 1.4×10^5 cells/ml in 10% FBS media for 24 hr in 96-well PRIMARIA™ tissue culture plates. After the initial isolation microglia and astrocytes were seeded at a density of 1.4×10^5 cells/ml into 96-well PRIMARIA™ tissue culture plates. […] Cells were lysed and total protein levels were determined using the microBCA kit (Thermo Scientific). Supernatants were analyzed using mouse IL-6 ELISA (e-Biocience) and IL-6 levels were normalized to total protein levels.

[4] = test system: primary microglia; test: IL-6 release from primary microglia of wild type and YAC128 mice (ELISA); format: cell-based, mouse; conditions: CSE and INF-γ stimulated wild type and YAC128 microglia
Method: as §1

Q: What does the source list for `O=[N+]([O-])c1ccc(Sc2nnc(COc3ccccc3)n2-c2ccccc2)nc1` [MIND4-17]?
A: Expression of ARE genes Nqo1, Hmox1 [1]: increased the expression of the canonical ARE genes Nqo1, Hmox1; Expression of Gcic [1]: ~2 fold; Levels of IL-1, IL-6, IL-8 and TNFα ([2]; HD patient cells): significant decrease in the levels of all four cytokines; IL-1, IL-6, IL-8 and TNFα production ([2]; monocytes from HD patients and normal subjects, LPS and IFN-g stimulation, different doses): reduced IL-1, IL-6, IL-8, and TNFα production; IL-6 release [3]: dose-response reduction of IL-6 release; IL-6 secretion [4]: reduced the amount of IL-6 secreted
